Where two headings read alike, the source gives them in different places.
Experiments:
PKCδ-C1B = target: T1, PKCδ-C1B (Mus musculus, UniProt P28867); experiment: PKCδ-C1B assay; type: binding
T1 construct: made in house
Description: Phosphatidyl serine vesicles are prepared by the addition of phosphatidyl serine (10 mg/mL in chloroform, 0.4 mL) to a glass test tube followed by removal of the chloroform under a stream of nitrogen (5 min). […] The resulting solution is stored over ice. […] Stock solutions of compounds are diluted with absolute ethanol in glass in serial fashion. […] The tubes are incubated at 37° C. for 90 min. and then put on ice for 5 min. Each tube is then filtered separately through a pre-soaked filter disc. […] The filter is subsequently rinsed with cold 20 mM TRIS buffer (5 mL) dropwise. […] The filters are immediately counted in a scintillation counter (Beckman LS 6000SC). Counts per minute are averaged among three trials at each concentration.

P388 cell line = experiment: P388 murine lymphocytic leukemia cell assay; type: cell-based; conditions: Mus musculus, P388, 120 h; 5 days incubation, MTT; read-out: P388 Assay ED50
Description: Cells from a P388 cell line (CellGate, Inc., Sunnyvale, Calif.) are grown in RPMI 1640 cell medium containing fetal calf serum (10%), L-glutamine, penicillin, streptomycin and are split twice weekly. All compounds are first diluted with DMSO. Later serial dilutions are done with a phosphate buffer solution (HYQ DPBS modified phosphate buffered saline). All dilutions are done in glass vials and the final DMSO concentration is always below 0.5% by volume. Final two-fold dilutions are done in a 96 well plate using cell media so that each well contains 50 μL. All compounds are assayed in quadruplicate over 12 concentrations. Cell concentration is measured using a hemacytometer and the final cell concentration is adjusted to 1×10^4 cells/mL with cell medium. The resulting solution of cells (50 μL) is then added to each well and the plates are incubated for 5 days in a 37° C., 5% CO2, humidified incubator (Sanyo CO2 incubator). MTT solution (3-[4,5-dimethylthiazol-2-yl]-2,5-diphenyltetrazolium bromide, 10 μL) is then added to each well and the plates are re-incubated under identical conditions for 2 h. To each well is then added acidified isopropanol (150 μL of i-PrOH solution containing 0.05 N HCl) and mixed thoroughly. The plates are then scanned at 595 nm and the absorbances are read (Wallac Victor 1420 Multilabel Counter). The resulting data is then analyzed to determine an ED50 value using the Prism software package (GraphPad).

[1] = target: PKC purified from rat brain (mixture of PKC isoenzymes); experiment: Protein kinase C (isozyme mix) assay; type: binding; conditions: determined under identical conditions to the PKC isozyme mix assay; read-out: Kd of [H^3]-PDBu
Description: In one approach, anticancer activity of compounds of the invention can be assessed using the protein kinase C assay detailed in Example 5. In this assay, Ki values are determined for analogues based on competition with radiolabeled phorbol 12,13-dibutyrate for binding to a mixture of PKC isoenzymes. PKC enzymes are implicated in a variety of cellular responses which may be involved in the activity of the bryostatins.
The following procedure was used, based on a modification of a previous procedure described by Tanaka et al. (1986). Filters (Whatman GF-B, 21 mm diam.) are soaked for 1 h in a solution containing deionized water (97 mL), and 10% polyethyleneamine (3 mL). A filtering buffer solution containing TRIS (1M, pH 7.4, 10 mL) and water (490 mL) is prepared and cooled on ice. […] Non-specific binding is measured in 1–3 tubes by the substitution of phorbol myristate acetate (PMA) (1 mM, 5 μL) and EtOH (15 μL) for the analogue/EtOH combination. […] The filters are immediately counted in a scintillation counter (Beckman LS 6000SC). […] The data is then plotted using a least squares fit algorithm with the Macintosh version of Kaleidagraph© (Abelbeck Software) and an IC50 (defined as the concentration of analogue required to displace half of the specific PDBU binding to PKC) is calculated. […]

T1 sequence (P28867 231-281 limits assumed): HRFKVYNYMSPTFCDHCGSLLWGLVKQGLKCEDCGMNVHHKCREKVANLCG

SMILES | Ki (PKCδ-C1B; competition with tritiated phorbol 12,13-dibutyrate, read-out: PKCδ-C1B Assay Ki) | EC50 (P388 cell line) | Ki (PKCδ-C1B) | Kd (PKCδ-C1B; Kd value printed in the Ki column) | Kd [1]
COC(=O)/C=C1\C[C@H]2C[C@H]([C@@H](C)O)OC(=O)C[C@H](O)C[C@@H]3CCC[C@H](C[C@@H]4CCO[C@H](/C=C/C(C)(C)[C@](O)(O2)C1OC(C)=O)O4)O3 (stereo partly drawn) [Formula 702.2] | 0.232 ± 0.011 µM | 0.181 µM |  |  | 
CCCCCCCC(=O)O[C@H]1/C(=C/C(=O)OC)CC2C[C@H]([C@@H](C)O)OC(=O)C[C@H](O)C[C@@H]3CCC[C@H](C[C@@H]4CCO[C@H](/C=C/C(C)(C)[C@]1(O)O2)O4)O3 [Formula 1998a, reference compound] |  | 0.076 µM | 0.0051 µM |  | 
CCCC(=O)O[C@@H]1[C@@H](C)[C@@]2(O)[C@@H](C=C(CO)C[C@]3(O)C(=O)C(C)=C[C@@H]23)[C@@H]2C(C)(C)[C@]12OC(=O)CCC [Phorbol dibutyrate, phorbol 12,13-dibutyrate, reference compound] |  |  |  | 0.0017 µM | 0.00155 µM
